In patent publication US7094909B2, “HIV protease inhibitors, compositions containing the same, their pharmaceutical uses and materials for their synthesis” (priority 2001, dated 2006):
pKi: −log10 of the molar value.

The molecules below were run against T1, HIV-1 protease (Q7S mutant form) (Human immunodeficiency virus type 1 group M subtype B, UniProt P04585, Q495S) (assay: HIV-1 Protease RET assay). Conditions: Ave. Ki (nM), RET assay, Q7S enzyme, Morrison tight binding fit.
T1 construct: made in house
Assay type: biochemical
Procedure: Ki's for the inhibitors of HIV-1 protease were determined using a resonance energy transfer (RET) assay. […] This enzyme is first partially purified as inclusion bodies from cell lysate. It is then solublized in 8M urea and passed through a Q-Sepharose column (Pharmacia) for further purification. To refold this protein, samples containing Q7S is dialyzed into 50 mM sodium phosphate pH 7.0, 50 mM NaCl, 10 mM DTT, and 10% glycerol.
The commercially available peptide substrate (Molecular Probes Cat. # H-2930) RE(EDANS)SQNYPIVQK(DABCYL)R is used to assess activity and Ki's. This peptide is cleaved quantitatively by HIV-1 Pr at the Tyr-Pro bond. The EDANS fluorophore absorbs at 340 nm and emits at 490 nm. The reaction is carried out in a 96 well plate in a total volume of 100 µL and is run for 12 minutes at 37 C under steady-state conditions with 5 µM substrate and 2 nM active dimer enzyme concentration. The literature value Km for this substrate and enzyme is 103+/−8 µM (See Matayoshi, et al., “Novel Fluorogenic Substrates for Assaying Retroviral Proteases by Resonance Energy Transfer,” Science 247, 954 (1990)). The buffer for this reaction is 0.1M sodium acetate pH 4.8, 1M NaCl, 1 mM EDTA, 5 mM dithiothreitol, 10% dimethyl sulfoxide and 1 mg/ml bovine serum albumin. Inhibition curves are fit using the Morrison tight binding equation.
`Cc1ccc(CNC(=O)NC(Cc2ccccc2)C(O)C(=O)N2CSC(C)(C)[C@H]2C(=O)NCc2ccccc2C)c(C)c1` (stereo in doubt) [Example B69, 3-{3-[3-(2,4-Dimethyl-benzyl)-ureido]-2-hydroxy-4-phenyl-butyryl}-5,5-dimethyl-thiazolidine-4-carboxylic acid 2-methyl-benzylamide] showed a Ki of 7.7 nM. In the case of `COc1ccccc1CNC(=O)NC(Cc1ccccc1)C(O)C(=O)N1CSC(C)(C)[C@H]1C(=O)NCc1ccccc1C` (stereo in doubt) [Example B70, 3-{2-Hydroxy-3-[3-(2-methoxy-benzyl)-ureido]-4-phenyl-butyryl}-5,5-dimethyl-thiazolidine-4-carboxylic acid 2-methyl-benzylamide], the Ki was 21 nM. In the case of `Cc1ccccc1CNC(=O)[C@H]1N(C(=O)C(O)C(Cc2ccccc2)NC(=O)NCc2ccc(F)cc2F)CSC1(C)C` (stereo in doubt) [Example B71, 3-{3-[3-(2,4-Difluoro-benzyl)-ureido]-2-hydroxy-4-phenyl-butyryl}-5,5-dimethyl-thiazolidine-4-carboxylic acid 2-methyl-benzylamide], the Ki was 6.4 nM. For `Cc1ccccc1CNC(=O)[C@H]1N(C(=O)C(O)C(Cc2ccccc2)NC(=O)NCc2ccccc2Br)CSC1(C)C` (stereo in doubt) [Example B72, 3-{3-[3-(2-Bromo-benzyl)ureido]-2-hydroxy-4-phenyl-butyryl}-5,5-dimethyl-thiazolidine-4-carboxylic acid 2-methyl-benzylamide], the Ki was 6.6 nM. `Cc1ccccc1CNC(=O)[C@H]1N(C(=O)C(O)C(Cc2ccccc2)NC(=O)NCc2ccc(Br)cc2)CSC1(C)C` (stereo in doubt) [Example B73, 3-{3-[3-(4Bromo-benzyl)-ureido]-2-hydroxy-4phenyl-butyryl}-5,5-dimethyl-thiazolidine-4-carboxylic acid 2-methyl-benzylamide] was tested, and the Ki was 13 nM. Molecule `Cc1c(O)cccc1C(=O)N[C@@H](Cc1ccccc1)[C@H](O)C(=O)N1CSC(C)(C)[C@H]1C(=O)NCc1nc2ccccc2[nH]1` [Example A60, (R)-3-[(2S,3S)-2-Hydroxy-3-(3-hydroxy-2-methyl-benzoylamino)-4-phenyl-butyryl]-5,5-dimethyl-thiazolidine-4-carboxylic acid (1H-benzoimidazol-2-ylmethyl)-amide] has a Ki of 66.6 nM. `Cc1ccccc1CNC(=O)[C@H]1N(C(=O)[C@@H](O)[C@H](Cc2ccccc2)NC(=O)NC(C)C)CSC1(C)C` [Example B17, 3-[(S)-2-Hydroxy-3-(3-isopropyl-ureide)-4-phenyl-butyryl]-5,5-dimethyl-thiazolidine-4carboxylic acid 2-methyl-benzylamide] was tested, and the Ki was 4.8 nM. `CC1(C)SCN(C(=O)[C@@H](O)[C@H](Cc2ccccc2)NC(=O)NCc2ccccc2Cl)C1C(=O)NCc1ccccc1Cl` (stereo partly drawn) [Example B46, 3-{(2S,3S)-3-[3-(2-Chloro-benzyl)-ureido]-2-hydroxy-4-phenyl-butyryl}-5,5-dimethyl-thiazolidine-4-carboxylic acid 2-chloro-benzylamide] was tested, and the Ki was 93 nM. Molecule `CC1(C)SCN(C(=O)[C@@H](O)[C@H](Cc2ccccc2)NC(=O)NCc2c(F)cccc2F)[C@@H]1C(=O)NCc1c(F)cccc1F` [Example B49] has a Ki of 120 nM. With `C=CCOC(=O)N[C@@H](Cc1ccccc1)[C@H](O)C(=O)N1CSC(C)(C)[C@H]1C(=O)NCc1c(F)cccc1F` [Example B50, {(1S,2S)-1-Benzyl-3-[(R)-4-(2,6-difluoro-benzylcarbamoyl)-5,5-dimethyl-thiazolidin-3-yl]-2-hydroxy-3-oxo-propyl}-carbamic acid allyl ester] the Ki was 7.4 nM. `CC1(C)SCN(C(=O)[C@@H](O)[C@H](Cc2ccccc2)NC(=O)NCc2ccccc2C(F)(F)F)[C@@H]1C(=O)NCc1ccccc1C(F)(F)F` [Example B52, 3-{(2S,3S)-2-Hydroxy-4-phenyl-3-[3-(2-trifluoromethyl-benzyl)-ureido]-butyryl}-5,5-dimethyl-thiazolidine-4-carboxylic acid 2-trifluoromethyl-benzylamide] showed a Ki of 120 nM. `Cc1ccccc1CNC(=O)[C@H]1N(C(=O)[C@@H](O)[C@H](Cc2ccccc2)NC(=O)Nc2cccc(F)c2)CSC1(C)C` [Example B55, 3-{(2S,3S)-3-[3-(3-Fluoro-phenyl)-ureido]-2-hydroxy-4-phenyl-butyryl}-5,5-dimethyl-thiazolidine-4-carboxylic acid 2-methyl-benzylamide] gave a Ki of 679 nM. `Cc1ccccc1CNC(=O)[C@H]1N(C(=O)C(O)C(Cc2ccccc2)NS(=O)(=O)c2ccc(C#N)cc2)CSC1(C)C` (stereo partly drawn) [Example B58, 3-[(2S,3S)-3-(4-Cyano-benzenesulfonylamino)-2-hydroxy-4-phenyl-butyryl]-5,5-dimethyl-thiazolidine-carboxylic acid 2-methyl-benzylamide] gave a Ki of 240 nM. `CC1(C)SCN(C(=O)[C@@H](O)[C@H](Cc2ccccc2)NC(=O)NCc2ccccc2)[C@@H]1C(=O)NCc1ccccc1` [Example B61, 3-[(2S,3S)-3-(3-Benzyl-ureido)-2-hydroxy-4-phenyl-butyryl]-5,5-dimethyl-thiazolidine-4-carboxylic acid benzylamide] was tested, and the Ki was 16.9 nM. `Cc1ccccc1CNC(=O)N[C@@H](Cc1ccccc1)[C@H](O)C(=O)N1CSC(C)(C)[C@H]1C(=O)NCc1ccccc1C` [Example B62, 3-{(2S,3S)-2-Hydroxy-3-[3-(2-methyl-benzyl)-ureido]-4-phenyl-butyryl}-5,5-dimethyl-thiazolidine-4-carboxylic acid 2-methyl-benzylamide] was tested, and the Ki was 4.2 nM. In the case of `COc1ccc(CNC(=O)NC(Cc2ccccc2)C(O)C(=O)N2CSC(C)(C)[C@H]2C(=O)NCc2ccc(OC)cc2)cc1` (stereo partly drawn) [Example B63, 33-{(2S,3S)-2-Hydroxy-3-[3-(4-methoxy-benzyl)-ureido]-4-phenyl-butanoyl}-5,5-dimethyl-thiazolidine-4-carboxylic acid 4-methoxy-benzylamide], the Ki was 7.8 nM. With `Cc1ccccc1CNC(=O)NC(Cc1ccccc1)C(O)C(=O)N1CSC(C)(C)[C@H]1C(=O)NCc1ccncc1` (stereo partly drawn) [Example B66, 3-{(2S,3S)-2-Hydroxy-3-[3-(2-methyl-benzyl)-ureido]-phenyl-butyryl}-5,5-dimethyl-thiazolidine-4-carboxylic acid (pyridin-4-ylmethyl)-amide] the Ki was 5.2 nM. In the case of `COc1ccc(CNC(=O)N[C@@H](Cc2ccccc2)[C@H](O)C(=O)N2CSC(C)(C)[C@H]2C(=O)NCc2ccccc2C)cc1OC` [Example B74, (R)-3-{(2S,3S)-3-[3-(3,4Dimethoxy-benzyl)ureido]-2-hydroxy-4-phenyl-butyryl}-5,5-dimethyl-thiazolidine-4-carboxylic acid 2-methyl-benzylamide], the Ki was 39 nM. `Cc1ccccc1CNC(=O)[C@H]1N(C(=O)[C@@H](O)[C@H](Cc2ccccc2)NC(=O)NCc2cccc(C(F)(F)F)c2)CSC1(C)C` [Example B75, (R)-3-{(2S,3S)-2-Hydroxy-4-phenyl-3-[3-(3-trifluoromethyl-benzyl)-ureido]-butyryl}-5,5-dimethyl-thiazolidine-4-carboxylic acid 2-methyl-benzylamide] showed a Ki of 81 nM. `COc1cccc(CNC(=O)N[C@@H](Cc2ccccc2)[C@H](O)C(=O)N2CSC(C)(C)[C@H]2C(=O)NCc2ccccc2C)c1` [Example B76, (R)-3-{(2S,3S)-2-Hydroxy-3-[3-(3-methoxy-benzyl)-ureido]-4-phenyl-butyryl}-5,5-dimethyl-thiazolidine-4-carboxylic acid 2-methyl-benzylamide] gave a Ki of 11.2 nM. Work on `CC(C)=CCNC(=O)[C@@H]1CC(F)(F)CN1C(=O)[C@@H](O)[C@H](Cc1ccccc1)NC(=O)c1cccc(O)c1C` [Example C9, (S)-4,4-Difluoro-1-((2S,3S)-2-hydroxy-3-{[1-(3-hydroxy-2-methyl-phenyl)-methanoyl]-amino}-4-phenyl-butanoyl)-pyrrolidine-2-carboxylic acid (3-methyl-but-2-enyl)-amide] yielded a Ki of 6.3 nM. Molecule `Cc1c(O)cccc1C(=O)N[C@@H](Cc1ccccc1)[C@H](O)C(=O)N1CC(F)(F)C[C@H]1C(=O)NCc1c(F)cccc1Cl` [Example C14, (S)-4,4-Difluoro-1-[(2S,3S)-2-hydroxy-3-(3-hydroxy-2-methyl-benzoylamino)-4-phenyl-butyryl]-pyrrolidine-2-carboxylic acid 2-chloro-6-fluoro-benzylamide] has a Ki of 2.5 nM. `Cc1c(O)cccc1C(=O)N[C@@H](Cc1ccccc1)[C@H](O)C(=O)N1CO[C@@H](C)[C@H]1C(=O)N[C@@H]1C=CCCC1` [Example C28, (4S,5S)-3-((2S,3S)-2-Hydroxy-3-{[1-(3-hydroxy-2-methyl-phenyl)-methanoyl]-amino}-4phenyl-butanoyl)-5-methyl-oxazoldine-4-carboxylic acid (S)-cyclohex-2-enylamide] gave a Ki of 8.4 nM.

Same assay, conditions: Ki, unit inferred
`Cc1ccccc1CNC(=O)[C@H]1N(C(=O)[C@@H](O)[C@H](Cc2ccccc2)NC(=O)CCCN)CSC1(C)C` was tested, and the pKi was 7.29. `Cc1ccccc1CNC(=O)[C@H]1N(C(=O)[C@@H](O)[C@H](Cc2ccccc2)NC(=O)CN)CSC1(C)C` was tested, and the pKi was 6.96. `Cc1ccccc1CNC(=O)[C@H]1N(C(=O)[C@@H](O)[C@H](Cc2ccccc2)NC(=O)C(C)(C)CN)CSC1(C)C` gave a pKi of 7.73. In the case of `Cc1ccccc1CNC(=O)[C@H]1N(C(=O)[C@@H](O)[C@H](Cc2ccccc2)NC(=O)C(C)CN)CSC1(C)C` (stereo partly drawn), the pKi was 6.80.
